Where a name gives a salt, the structure may show the parent alone. Read-outs that look alike come from different tables or passages of the source.
Columns and labels:
[1] = Method: Supernatant solution was withdrawn and filtered through 0.22 μm nylon syringe filters to be analyzed for the quantification of dissolved epinephrine.
Analysis and condition were performed according to USP 26th edition, 2003 “Epinephrine Injection Monograph.”

[2] = UV absorptivity of oxidative products of epinephrine at 310 nm; assay type: physicochemical; settings: controls, not stored, 4 mg/mL
Method: The supernatant was visually inspected against white background for any discoloration (USP/NF. Official Monograph: Epinephrine Injection. 31/26 ed. Rockville, Md.: United States Pharmacopeial Convention, Inc.; 2008) and then filtered and diluted to make 4 mg/mL. […] The absorptivity of all samples and controls was calculated by dividing the absorbance by the product of the concentration of the drug (g/L) and the path length (cm) of the cell used to measure the absorbance (USP/NF. Physical Tests: Spectrophotometery and Light-Scattering (851). 31/26 ed. Rockville, Md.: United States Pharmacopeial Convention, Inc.; 2008).
The absorptivity of oxidative products of epinephrine in the tablets from each formulation at each storage condition and in controls was statistically compared by two-way ANOVA and Tukey-Kramer tests.

[3] = remark: listed apart in the source
Method: Samples were prepared in triplicates for each concentration, n=3. All prepared samples were processed using LV-1 High Shear Fluid Processor “Microfluidizer” (Microfluidics, Newton, Mass.) equipped with G10Z reaction chamber under various pressures ranging from 15 to 30 KPsi for single or several passes. The microfluidizer-receiving coil was immersed in ice to reduce the heat produced during the process for heat-sensitive drugs. The particle size and potential of the produced nanosuspension were measured. The nanosuspension was centrifuged at 15,000 rpm and 15° C. for 30 minutes to collect the nanoparticles, and the solvent was then removed. The collected nanoparticles were completely dried by speed vacuum concentrator or lyophilization.
(§1) Nanoparticle Characterization: The particle size distribution and zeta potential of the nanosuspension was measured before and after size reduction by volume and by intensity using Mastersizer (Malvern) and Zetasizer Nano-ZS90 (Malvern), respectively. The average of 3 measurements for each sample was reported.

[4] = various concentrations
Method: as §1

CNC[C@H](O)c1ccc(O)c(O)c1 [Epinephrine Base, epinephrine]
Amount Dissolved ([1]; solubility in water): 53.37 µg/mL

CNC[C@H](O)c1ccc(O)c(O)c1 [epinephrine bitartrate, (−)-3,4-dihydroxy-α-[(methylamino)methyl]benzyl alcohol (+)-tartrate (1:1) salt]
Absorptivity of Oxidative Products of Epinephrine (Mean ± SD) [2]: 0.001 ± 0.000
Amount Dissolved ([1]; solubility in acetone): 31.28 µg/mL
Amount Dissolved ([1]; solubility in acetonitrile): 15.46 µg/mL
Amount Dissolved ([1]; solubility in chloroform): 1.87 µg/mL
Amount Dissolved ([1]; solubility in ethyl acetate): 12.60 µg/mL
Amount Dissolved ([1]; solubility in hexane): 0.53 µg/mL
Amount Dissolved ([1]; solubility in isopropyl alcohol): 12.30 µg/mL
Amount Dissolved ([1]; solubility in methanol): 209.01 µg/mL
Amount Dissolved ([1]; solubility in tetrahydrofuran (THF)): 155.18 µg/mL
Mean ± SD particles size ([3]; 0 passes, before processing, n = 6): 131,800 ± 10500 nm
polydispersity (pdi) ([3]; 0.7 mg/ml, 1 pass at 30 KPsi): (0.257 + 0.060)
polydispersity (pdi) ([3]; 0.7 mg/ml, 2 passes at 30 KPsi): (0.119 ± 0.052)
polydispersity (pdi) ([3]; 0.7 mg/ml, 4 passes at 30 KPsi): (0.217 ± 0.035)
polydispersity (pdi) ([3]; 0.7 mg/ml, 5 passes at 30 KPsi): (0.170 ± 0.070)
polydispersity (pdi) ([3]; 0.7 mg/ml, 6 passes at 30 KPsi): (0.195 ± 0.067)
polydispersity (pdi) ([3]; 1.4 mg/ml, 1 pass at 30 KPsi): (0.239 + 0.044)
polydispersity (pdi) ([3]; 1.4 mg/ml, 2 passes at 30 KPsi): (0.158 ± 0.021)
polydispersity (pdi) ([3]; 1.4 mg/ml, 4 passes at 30 KPsi): (0.178 ± 0.039)
polydispersity (pdi) ([3]; 3.5 mg/ml, 1 pass at 30 KPsi): (0.335 + 0.112)
polydispersity (pdi) ([3]; 3.5 mg/ml, 2 passes at 30 KPsi): (0.576 ± 0.080)
polydispersity (pdi) ([3]; 4.5 mg/ml, 1 pass at 30 KPsi): (0.321 + 0.060)
polydispersity (pdi) ([3]; 4.5 mg/ml, 2 passes at 30 KPsi): (0.315 ± 0.055)
particle size before size reduction ([3]; as stated in summary text): 150.7±5 μm
10th percentile (Dv0.1) ([3]; before processing, n = 6): 39.8 ± 3.0 μm
90th percentile (Dv0.9) ([3]; before processing, n = 6): 254.8 ± 20.1
median (Dv0.5) ([3]; before processing, n = 6): 113.6 ± 9.1 μm
color of the fabricated nanosuspension [4]: no change in color

— patent publication US10251849B2, “Sublingual compositions including epinephrine nanoparticles” (NOVA SOUTHEASTERN UNIVERSITY, priority 2012, dated 2019)
